Assay results as given in patent US10913781B2, “Pepducin design and use” (Tufts Medical Center, Inc., priority 2011, dated 2021).
Peptide text beside a SMILES is read from it. * marks the point of attachment. Palmitoyl = CCCCCCCCCCCCCCCC(=O)*

How the values were obtained:
PAR1 [1] = target: T1, PAR1 (Homo sapiens, UniProt P25116); assay: Human platelet Ca2+ flux stimulated with SFLLRN; type: cell-based; set-up: endogenous in cells; host or cells: A549, HOP62, H1299, H522, H226, HOP92 lung carcinoma lines; conditions: human platelets
T1 sequence (P25116 22-425): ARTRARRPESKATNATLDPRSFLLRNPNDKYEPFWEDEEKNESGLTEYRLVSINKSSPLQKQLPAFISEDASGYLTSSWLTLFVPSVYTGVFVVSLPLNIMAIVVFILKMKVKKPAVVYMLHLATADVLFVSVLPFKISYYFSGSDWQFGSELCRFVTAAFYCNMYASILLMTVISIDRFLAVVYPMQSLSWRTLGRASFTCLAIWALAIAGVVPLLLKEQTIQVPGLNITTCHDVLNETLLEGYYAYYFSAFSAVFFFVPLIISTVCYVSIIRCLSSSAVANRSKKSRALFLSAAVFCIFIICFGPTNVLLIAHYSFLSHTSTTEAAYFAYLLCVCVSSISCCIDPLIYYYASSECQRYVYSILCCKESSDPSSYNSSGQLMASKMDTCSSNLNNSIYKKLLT
Excerpt: FIG. 8 illustrates data that show membrane-tethered PAR1-i3 and i1 pepducins block Ca^2+ flux and migration. (A): Model of PAR1 based on the […] structure of rhodopsin from Swift et al., 2006. Protease cleaved receptor results in generation of a new tethered ligand. The topologic arrangement of the […] to i4 loops and G proteins are illustrated. Schematic diagram of palmitoylated PAR1 i3 and i1 pepducins and their amino acid sequence composition are shown. (B): Effect of PAR1 pepducins on human platelets Ca^2+ flux. Platelets were preincubated with indicated concentrations of pepducins and stimulated with SFLLRN. Effect of blockade is expressed as the percentage of full Ca^2+ signal generated with SFLLRN in the absence of inhibitors. (C): Migration of A549 cells toward 0.3 nmol/L thrombin or 10 μmol/L […] in the presence or absence of 3 μmol/L P1pal-7, P1pal-10S, or P1pal-i1-11 after 18 hours. […] Cell migration is expressed as fold migration of ligand-mediated migration divided by basal migration.
First, it had been previously shown that PAR1 strongly couples to Gq in human platelets as assessed by Ca^++ signaling. In order to determine effect of i1 and i3 pepducins on PAR1 mediated Gq-PLCβ-lnsP3 signaling, human platelets were pretreated with PAR1 pepducins and stimulated with SFLLRN, before the rate of Ca^++ flux was measured.

PAR1 [2] = target: T1, PAR1; assay: Migration of primary patient lung tumor cells; type: cell-based; set-up: endogenous in cells; host or cells: A549, HOP62, H1299, H522, H226, HOP92 lung carcinoma lines
Description: FIG. 12 illustrates that PAR1 is a promigratory factor in lung cancer cells. (A-F): Inhibition of lung cancer migration in adenocarcinomas A549, HOP62, H1299 and H522, H226 squamous, and HOP92 large cell using PAR1 pepducins. Pepducins at […] (P1pal-7, P1pal-10S, P1pal-i1-11, or negative control P1pal-19EE) were added to the lower well. (G): Cell from primary lung tumors or nonmalignant control were pretreated with PAR1 pepducins and migration was determined (*P<0.05, **P<0.01).
Further experiments were carried out to determine whether migration of the primary carcinoma cell lines isolated from lung tumors could be inhibited by PAR1 pepducins (FIG. 12G). […] Likewise, the RWJ-56110 small-molecule antagonist of PAR1 (Andrade-Gordon, et al., Proc. Natl Acad Sci USA, 96 (1999), pp. 12257-12262) suppressed up to 55% of the migration of primary lung tumor cells toward NIH-3T3 conditioned media. The PAR1 antagonist pepducin P1pal-7 and P1pal-i1-11 had no effect on the low-expressing PAR1 cell line derived from benign lung tissue, which migrated poorly (FIG. 12G).

PAR2 = PAR2 (Mus musculus, UniProt P55086); assay: SLIGRL-induced mouse paw edema; type: in vivo; set-up: from tissue; host or cells: living C57BL/6 mice, hindpaw; conditions: WT C57BL/6 mice; 10 mg/kg s.c.
Description: (A) λ-carrageenan/kaolin or (B) the PAR2 specific agonist SLIGRL was administered by intraplantar injection to the left hindpaw of C57BL/6 wild-type or PAR2^−/− mice that were treated with subcutaneous (s.c.) injection of 10 mg/kg of P2pal-18S or vehicle. Paw area was measured and reported as fold-increase relative to baseline paw area. (C) Histology of representative H&E-stained footpads 7 h after λ-carrageenan/kaolin injection and quantification of the infiltrating inflammatory cells at 40× magnification. […]
To evaluate the in vivo efficacy and specificity of P2pal-18S, the ability of the pepducins of the present invention was tested to protect against inflammatory hindlimb paw edema in wild-type (WT) and PAR2-deficient mouse strains (Damiano B P, et al. (1999) J Pharmacol Exp Ther 288: 671-78.) Acute inflammatory edema was induced by an intraplantar injection of λ-carrageenan and kaolin, irritants which cause a massive leukocytosis and hyperemic response, which leads to localized swelling. PAR2-dependent activity of an embodiment of the present invention, polypeptide P2pal-18S, was directly assessed by quantifying its inhibitory effects against the PAR2-specific agonist SLIGRL when injected into the hind footpad of WT C57BL/6 mice. […]

Chain of PAR2 (P55086 26-399): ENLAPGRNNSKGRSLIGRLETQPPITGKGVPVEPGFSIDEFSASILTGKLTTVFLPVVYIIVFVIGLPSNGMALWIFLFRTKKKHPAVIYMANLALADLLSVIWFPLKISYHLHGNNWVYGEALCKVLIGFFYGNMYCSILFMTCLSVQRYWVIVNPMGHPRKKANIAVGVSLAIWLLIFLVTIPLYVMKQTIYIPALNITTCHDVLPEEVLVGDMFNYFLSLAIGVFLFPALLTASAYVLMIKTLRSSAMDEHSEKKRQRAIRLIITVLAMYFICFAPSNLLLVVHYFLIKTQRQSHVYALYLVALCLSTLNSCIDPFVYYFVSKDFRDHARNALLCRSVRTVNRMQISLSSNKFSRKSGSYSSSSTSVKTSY

Compound | Extent of inhibition of calcium mobilization (PAR1 [1]) | Effect on migration of low-expressing PAR1 cell line derived from benign lung tissue (PAR1 [2]) | Decrease in SLIGRL-induced edema (PAR2) [%]
CCCCCCCCCCCCCCCC(=O)N[C@H](C(=O)N[C@@H](CC(C)C)C(=O)N[C@@H](CCCCN)C(=O)N[C@@H](CCSC)C(=O)N[C@@H](CCCCN)C(=O)N[C@H](C(=O)N[C@@H](CCCCN)C(=O)N[C@@H](CCCCN)C(=O)N1CCC[C@H]1C(=O)N[C@@H](C)C(=O)N[C@H](C(N)=O)C(C)C)C(C)C)[C@@H](C)CC [P1pal-i1-11] (Palmitoyl-ILKMKVKKPAV-NH2) | less effective in inhibiting the Gq mediated calcium signal | no effect | 
CCCCCCCCCCCCCCCC(=O)N[C@@H](CCCNC(=N)N)C(=O)N[C@@H](CO)C(=O)N[C@@H](CO)C(=O)N[C@@H](C)C(=O)N[C@@H](CCSC)C(=O)N[C@@H](CC(=O)O)C(=O)N[C@@H](CCC(=O)O)C(=O)N[C@@H](CC(N)=O)C(=O)N[C@@H](CO)C(=O)N[C@@H](CCC(=O)O)C(=O)N[C@@H](CCCCN)C(=O)N[C@@H](CCCCN)C(=O)N[C@@H](CCCNC(=N)N)C(=O)N[C@@H](CCCCN)C(=O)N[C@@H](CO)C(=O)N[C@@H](C)C(=O)N[C@H](C(=O)N[C@@H](CCCCN)C(N)=O)[C@@H](C)CC [P2pal-18S] |  |  | 85
